# US11591319B2, “Small molecule inducers of autophagy” (Board of Regents, The University of Texas System, priority 2018, dated 2023)
# pIC50: −log10 of the molar value.
# Target: Beclin 1/Bcl-2 interaction (Homo sapiens (Human), UniProt P10415)
# Test: Beclin 1/Bcl-2 AlphaLISA assay (dose-response)
# Type: binding
# Description: We also developed a high-throughput Beclin 1/Bcl-2 AlphaLISA assay to directly measure the in vitro interaction between Beclin 1 and Bcl-2. AlphaLISA is a bead-based proximity assay that is capable of measuring protein-protein interaction in homogeneous solution.^41 Oxygen singlet molecules are generated by Alpha donor beads upon irradiation at 680 nm and travel to acceptor beads in proximity. […] Thus, a measurable Alpha luminescence signal requires chemical energy transfer between the donor and acceptor beads, and a pair of interacting molecules immobilized on the beads stabilizes bead association to produce measurable Alpha signals.
# We used purified recombinant Beclin 1 and Bcl-2 proteins for AlphaLISA, which were optimized for enhanced solubility and expression. Human Beclin 1 was expressed as a fusion protein with StrepII-SUMO at the N-terminus, and three residues on the aromatic finger of Beclin 1 were mutated (F359D/F360D/W361D) to improve solubility and protein stability.^42 These mutations are in the BARA domain, which is far from the BH3 motif recognized by Bcl-2. A recombinant Bcl-2-binding deficient mutant of Beclin 1 (StrepII-SUMO-Beclin 1^ΔBcl-2BD) was used as a negative control. […] For a normalization control, we included a parallel AlphaLISA assay with purified SUMO protein (with an N-terminal StrepII tag and a C-terminal 6xHis tag). The purpose of a normalization control is to eliminate inner filter (false-positive) hits that reduce luminescence signal by interfering with the AlphaLISA assay in ways that are unrelated to the Beclin 1/Bcl-2 interaction. With the normalization control, the interaction of Beclin 1 and Bcl-2 was measured as follows:
# All AlphaLISA assays were performed in triplicate in a 384-well format with BB buffer (phosphate-buffered saline supplemented with 0.5% BSA and 1 mM DTT). For the Beclin 1/Bcl-2 AlphaLISA, purified StrepII-SUMO-Beclin 1 was incubated with Bcl-2-6xHis proteins at 300 nM and 60 nM, respectively. For internal control AlphaLISA assays, StrepII-SUMO-6xHis protein (internal control) was used at 20 nM. […] Following the initial incubation, Strep-Tactin Alpha donor (AS106D) and anti-6xHis AlphaLISA acceptor beads (AL128M) were added to a final concentration of 40 μg/mL each and incubated at room temperature in the dark for an additional 1 h. All samples were evaluated in triplicate. Alpha signals were measured by an Envision plate reader (Perkin Elmer). Beclin 1/Bcl-2 Alpha signal was normalized with internal control Alpha signal. The normalized value represents the binding activity of Beclin 1 and Bcl-2. The percent activity of a compound was calculated as the following formula: […]
# Protein or peptide concentrations used in dose-response AlphaLISA experiments were as follows: Beclin1/Bcl-2—300 nM/60 nM; SUMO (internal control for Beclin 1/Bcl-2 AlphaLISA)—20 nM; Beclin 1 BH3/Bcl-2—1000 nM/60 nM; Bax BH3/Bcl-2—100 nM/20 nM; Biotin-6xHis (internal control for BH3/Bcl-2 AlphaLISA)—10
# Chain of Beclin 1/Bcl-2 interaction (P10415 1-218): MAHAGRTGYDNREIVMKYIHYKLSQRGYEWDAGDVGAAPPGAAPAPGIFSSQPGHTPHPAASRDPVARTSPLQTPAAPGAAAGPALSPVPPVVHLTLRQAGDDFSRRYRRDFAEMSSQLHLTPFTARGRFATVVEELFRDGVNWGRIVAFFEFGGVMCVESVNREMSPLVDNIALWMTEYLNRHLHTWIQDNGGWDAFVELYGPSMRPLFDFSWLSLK
row,SMILES,pIC50
1,CS(=O)(=O)Nc1ccc(C2=NN(C(=O)c3ccc(F)cc3)C(c3ccco3)C2)cc1 (centres unmarked) [lqr-8-183],4.89
2,CC(C)(C)OC(=O)Nc1ccc(C2=NN(C(=O)c3ccc(Br)cc3)C(c3ccccc3)C2)cc1 (centres unmarked) [lqr-8-278],6.56
3,CC(C)(C)OC(=O)Nc1ccc(C2=NN(C(=O)OC(C)(C)C)C(c3ccccc3)C2)cc1 (centres unmarked) [lqr-9-056],< 5.00
4,CS(=O)(=O)Nc1ccc(C2=NN(C(=O)c3ccc(C(F)(F)F)cc3)C(c3ccco3)C2)cc1 (centres unmarked) [lqr-8-189],5.55
5,CC(C)(C)OC(=O)Nc1ccc(C2=NN(C(=O)c3ccc(Br)cc3)C(c3ccncc3)C2)cc1 (centres unmarked) [lqr-9-046],5.52
6,CC(C)(C)OC(=O)Nc1ccc(-c2cc(-c3ccccc3)n(C(=O)c3ccc(Br)cc3)n2)cc1 [lqr-9-013],< 5.00
7,CS(=O)(=O)Nc1ccc(C2=NN(C(=O)c3ccc([N+](=O)[O-])cc3)C(c3ccco3)C2)cc1 (centres unmarked) [lqr-8-188],5.78
8,CC(C)(C)NC(=O)Nc1ccc(C2=NN(C(=O)c3ccc(Br)cc3)C(c3ccccc3)C2)cc1 (centres unmarked) [lqr-9-118],5.04
9,Cc1ccc(C(=O)N2N=C(c3ccc(NS(C)(=O)=O)cc3)CC2c2ccco2)cc1 (centres unmarked) [lqr-8-177],4.79
10,Cc1ccc(C(=O)N2N=C(c3ccc(NS(C)(=O)=O)cc3)CC2c2ccccc2Br)cc1 (centres unmarked) [lqr-8-269],5.01
11,Cc1ccc(C(=O)N2N=C(c3ccc(NS(C)(=O)=O)cc3)CC2c2ccc(C)cc2)cc1 (centres unmarked) [lqr-8-275],4.85
12,CC(C)(C)OC(=O)Nc1cccc(C2=NN(C(=O)c3ccc(Br)cc3)C(c3ccccc3)C2)c1 (centres unmarked) [lqr-9-055],4.92
13,CC(C)(C)OC(=O)Nc1ccc(C2=NN(C(=O)c3ccc([N+](=O)[O-])cc3)C(c3ccco3)C2)cc1 (centres unmarked) [lqr-8-233],5.91
14,O=C=Nc1ccc(C2=NN(C(=O)c3ccc(Br)cc3)C(c3ccccc3)C2)cc1 (centres unmarked) [lqr-9-068],< 5.00
15,CC(C)(C)OC(=O)Nc1ccc(C2=NN(C(=O)c3ccc4c(c3)OCO4)C(c3ccccc3)C2)cc1 (centres unmarked) [Lqr-9-065],5.17
16,CC(C)(C)OC(=O)Nc1ccc(-c2cc(-c3ccccc3)[nH]n2)cc1 [lqr-9-012],< 5.00
17,CCC1CC(c2ccc(NC(=O)OC(C)(C)C)cc2)=NN1C(=O)c1ccc(Br)cc1 (centres unmarked) [lqr-9-026],4.89
18,CS(=O)(=O)Nc1ccc(C2=NN(C(=O)c3ccc(I)cc3)C(c3ccco3)C2)cc1 (centres unmarked) [lqr-8-196],5.67
19,CC(C)NC(=O)Nc1ccc(C2=NN(C(=O)c3ccc(Br)cc3)C(c3ccccc3)C2)cc1 (centres unmarked) [lqr-9-085],7.20
20,Cc1ccc(C(=O)N2N=C(c3ccc(NC(=O)OC(C)(C)C)cc3)CC2c2ccco2)cc1 (centres unmarked) [lqr-8-203],5.54
21,CCOC(=O)Nc1ccc(C2=NN(C(=O)c3ccc(Br)cc3)C(c3ccccc3)C2)cc1 (centres unmarked) [lqr-9-157],> 6.81
22,CC(C)NC(=O)Nc1ccc(C2=NN(C(=O)c3ccc(Br)cc3)C(c3ccccc3)C2)cc1 (centres unmarked) [lqr-9-076],6.46
23,CC1=NN(C(=O)c2ccc(Br)cc2)C(c2ccccc2)C1 (centres unmarked) [Lqr-8-296],< 5.00
24,CS(=O)(=O)Nc1ccc(C2=NN(C(=O)c3ccc(C#N)cc3)C(c3ccco3)C2)cc1 (centres unmarked) [lqr-8-190],5.14

row,SMILES,pIC50
1,CC(C)(C)OC(=O)Nc1ccc(C2=NN(C(=O)c3ccc(Br)cc3)C(c3cccnc3)C2)cc1 (centres unmarked) [lqr-9-044],5.74
2,CS(=O)(=O)Nc1ccc(C2=NN(C(=O)c3ccc(Br)cc3)C(c3ccco3)C2)cc1 (centres unmarked) [lqr-8-186],5.62
3,CS(=O)(=O)Nc1ccc(C2=NN(C(=O)c3ccc(Cl)cc3)C(c3ccco3)C2)cc1 (centres unmarked) [lqr-8-180],5.56
4,COC(=O)Nc1ccc(C2=NN(C(=O)c3ccc(Br)cc3)C(c3ccccc3)C2)cc1 (centres unmarked) [lqr-9-008],5.00
5,CC(C)(C)OC(=O)Nc1ccc(C2=NN(C(=O)c3ccc(Br)cc3)C(c3ccoc3)C2)cc1 (centres unmarked) [lqr-9-048],5.39
6,CC(C)(C)OC(=O)Nc1ccc(C2=NN(C(=O)c3ccc(Br)cc3)C(c3ccc(Br)o3)C2)cc1 (centres unmarked) [lqr-8-302],5.57
7,Cc1ccc(C(=O)N2N=C(c3ccc(NS(C)(=O)=O)cc3)CC2c2ccccc2)cc1 (centres unmarked) [lqr-8-238],6.04
8,COc1ccc(C(=O)N2N=C(c3ccc(NS(C)(=O)=O)cc3)CC2c2ccco2)cc1 (centres unmarked) [lqr-8-185],5.00
9,CC(C)COC(=O)Nc1ccc(C2=NN(C(=O)c3ccc(Br)cc3)C(c3ccccc3)C2)cc1 (centres unmarked) [lqr-9-155],6.74
10,CN(C)C(=O)Nc1ccc(C2=NN(C(=O)c3ccc(Br)cc3)C(c3ccccc3)C2)cc1 (centres unmarked) [lqr-9-158],5.62
11,O=C(c1ccc(Br)cc1)N1N=C(c2ccc[nH]2)CC1c1ccccc1 (centres unmarked) [lqr-8-310],< 5.00
12,C=CCOC(=O)Nc1ccc(C2=NN(C(=O)c3ccc(Br)cc3)C(c3ccccc3)C2)cc1 (centres unmarked) [lqr-9-156],> 6.81
13,CC(C)(C)OC(=O)n1cccc1C1=NN(C(=O)c2ccc(Br)cc2)C(c2ccccc2)C1 (centres unmarked) [lqr-9-018],< 5.00
14,Cc1ccc(C(=O)N2N=C(c3ccc(NS(C)(=O)=O)cc3)CC2c2ccc(Br)cc2)cc1 (centres unmarked) [lqr-8-267],4.86
15,O=C(c1ccc(Br)cc1)N1N=C(c2ccco2)CC1c1ccccc1 (centres unmarked) [lqr-8-309],< 5.00
16,CCNc1ccc(C2=NN(C(=O)c3ccc(C)cc3)C(c3ccco3)C2)cc1 (centres unmarked) [lqr-8-219],4.53
17,CC(C)(C)OC(=O)Nc1ccc(C2=NN(C(=O)c3ccc([N+](=O)[O-])cc3)C(c3ccccc3)C2)cc1 (centres unmarked) [lqr-8-279],6.46
18,CC(C)(C)OC(=O)Nc1ccc(C2=NN(C(=O)c3ccc(Br)cc3)C(c3ccco3)C2)cc1 (centres unmarked) [lqr-8-231],6.01
19,CNC(=O)Nc1ccc(C2=NN(C(=O)c3ccc(Br)cc3)C(c3ccccc3)C2)cc1 (centres unmarked) [lqr-9-121],5.26
20,COC(=O)Nc1ccc(C2=NN(C(=O)c3ccc(C)cc3)C(c3ccco3)C2)cc1 (centres unmarked) [lqr-8-235],5.74
21,O=C1OCCN1c1ccc(C2=NN(C(=O)c3ccc(Br)cc3)C(c3ccccc3)C2)cc1 (centres unmarked) [lqr-9-088],5.29
22,CC(C)(C)OC(=O)Nc1ccc(C2=NN(C(=O)c3ccc(Br)cc3)C(c3ccccn3)C2)cc1 (centres unmarked) [lqr-9-033],6.34
23,O=C(Nc1ccc(C2=NN(C(=O)c3ccc(Br)cc3)C(c3ccccc3)C2)cc1)OC1CC1 (centres unmarked) [lqr-9-161],> 6.81
